Results published in patent US8697691B2, “Alkyl 3-((2-amidoethyl)amino)-8-azabicyclo[3.2.1]octane-8-carboxylate analogs as selective M1 agonists and methods of making and using same” (Vanderbilt University, priority 2009, dated 2014).
Read-outs that look alike come from different tables or passages of the source.

Molecular target: T1, human M1 receptor (Homo sapiens, UniProt P11229)
T1 construct: host or cells: CHO-K1
T1 sequence (P11229 1-460): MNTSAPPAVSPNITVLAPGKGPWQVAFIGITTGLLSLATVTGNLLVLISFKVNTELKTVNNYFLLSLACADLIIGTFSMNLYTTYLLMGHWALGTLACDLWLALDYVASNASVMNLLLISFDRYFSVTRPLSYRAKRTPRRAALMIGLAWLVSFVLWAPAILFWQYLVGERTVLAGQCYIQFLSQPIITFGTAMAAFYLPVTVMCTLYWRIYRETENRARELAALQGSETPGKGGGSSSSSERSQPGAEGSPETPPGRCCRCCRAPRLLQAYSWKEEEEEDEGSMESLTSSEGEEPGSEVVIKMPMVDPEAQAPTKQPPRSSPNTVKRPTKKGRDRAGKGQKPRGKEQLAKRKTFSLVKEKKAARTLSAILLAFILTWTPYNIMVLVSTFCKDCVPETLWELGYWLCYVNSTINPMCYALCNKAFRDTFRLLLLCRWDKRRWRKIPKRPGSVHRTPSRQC
Test: Calcium mobilization assay, CHO-K1 cells stably expressing hM1 (high throughput, FDSS 6000)
Type: cell-based
Conditions: for Emax: CHO-K1, read-out: Efficacy (% Max ACh)
Text: Chinese hamster ovary (CHO-K1) cells stably expressing rat (r)M1 were purchased from the American Type Culture Collection and cultured according to their indicated protocol. CHO cells stably expressing human (h)M2, hM3, and hM5 were described previously (Levey et al., 1991); hM1 and hM4 cDNAs were purchased from Missouri S&T cDNA Resource; rM4 cDNA was provided by T. I. Bonner (National Institutes of Health, Bethesda, Md.). hM1, hM4, and rM4 cDNAs were used to stably transfect CHO-K1 cells purchased from the American Type Culture Collection using Lipofectamine2000. To make stable hM2, hM4 and rM4 cell lines for use in calcium mobilization assays, these cells also were stably transfected with a chimeric G-protein (Gqi5) (provided by B. R. Conklin, University of California, San Francisco) using Lipofectamine 2000. rM1, hM3, and hM5 cells were grown in Ham's F-12 medium containing 10% heat-inactivated fetal bovine serum (FBS), 20 mM HEPES, and 50 μg/mL G418 sulfate. hM2-Gqi5 and hM4-Gqi5 cells were grown in the same medium also containing 500 μg/mL Hygromycin B. Stable rM4-Gqi5 cells were grown in DMEM containing 10% heat-inactivated FBS, 20 mM HEPES, 400 μg/mL G418 sulfate, and 500 μg/mL Hygromycin B. The rat M1 Y381A orthosteric mutant receptor cDNA was generated using the Quik-Change site-directed mutagenesis kit (Stratagene) and verified by sequencing. CHO-K1 cells were stably transfected with this cDNA using Lipofectamine2000 and screened for expression based on calcium mobilization in response to the allosteric M1 agonist N-desmethylclozapine.
For high throughput measurement of agonist-evoked increases in intracellular calcium, CHO-K1 cells stably expressing muscarinic receptors were plated in growth medium lacking G418 and hygromycin at 15,000 cells/20 μL/well (hM1, hM2-Gqi5, hM3, hM4-Gq15, and hM5) in Greiner 384-well black-walled, tissue culture (TC)-treated, clear-bottom plates (VWR). Cells were incubated overnight at 37° C. and 5% CO2. The next day, cells were washed using an ELX 405 (BioTek) with three washes (50 μL) of assay buffer then aspirated to 15 μL. Next, 5 μL of 8 μM Fluo-4/acetoxymethyl ester (Invitrogen, Carlsbad, Calif.) prepared as a 2.3 mM stock in DMSO and mixed in a 1:1 ratio with 10% (w/v) Pluronic F-127 and diluted in assay buffer was added to the wells and the cell plates were incubated for 45 min at 37° C. and 5% CO2. Dye was removed by washing with the ELX 405 (three 50 μL washes of assay buffer) then aspirated to 20 μL. Agonist and compound master plates were formatted in an 11 point CRC format (1:3 dilutions) in 100% DMSO with a starting concentration of 10 mM using the BRAVO liquid handler (Agilent). Test compound CRCs were then transferred to daughter plates ([…]) using the Echo acoustic plate reformatter (Labcyte, Sunnyvale, Calif.) and then diluted into assay buffer (40 μL) to a 2× stock using a Thermo Fisher Combi (Thermo Fisher Scientific, Waltham, Mass.). Calcium flux was measured using the Functional Drug Screening System (FDSS) 6000 (Hamamatsu Corporation, Tokyo, Japan) as an increase in the fluorescent static ratio. 20 μL of Agonist Compounds were applied to cells using the automated system of the FDSS 6000 at 4 s into the 300 s protocol and the data were collected at 1 Hz. Concentration-response curves were generated using a four-parameter logistical equation in XLfit curve fitting software (IDBS, Bridgewater, N.J.) for Excel (Microsoft, Redmond, Wash.) or Prism (GraphPad Software, Inc., San Diego, Calif.).

[1] = human M1, agonist-evoked calcium mobilization in CHO-K1 cells, read-out: Potency (EC50)

SMILES: CC(C)OC(=O)N1C2CCC1CC(NCCNC(=O)c1ccccc1)C2 (stereo not drawn) [Example 37, isopropyl 3-((3-exo)-(2-benzamidoethyl)amino)-8-azabicyclo[3.2.1]octane-8-carboxylate]
- Emax: 7%

SMILES: CCOC(=O)N1[C@@H]2CC[C@H]1C[C@H](NCCNC(=O)N1CCOCC1)C2 [Example 38, ethyl 3-((3-exo)-(2-(morpholine-4-carboxamido)ethyl)-amino)-8-azabicyclo[3.2.1]octane-8-carboxylate]
- Emax: 37%
- EC50 [1]: 3.6 µM

SMILES: CCOC(=O)N1[C@@H]2CC[C@H]1C[C@H](NCCNC(=O)c1ccc(F)c(F)c1)C2 [Example 39, ethyl 3-((3-exo)-(2-(3,4-difluorobenzamido)ethyl)-amino)-8-azabicyclo[3.2.1]octane-8-carboxylate]
- Emax: 46%
- EC50 [1]: 1.4 µM

SMILES: CCOC(=O)N1[C@@H]2CC[C@H]1C[C@H](NCCNC(=O)c1cccs1)C2 [Example 40, ethyl 3-((3-exo)-(2-(thiophene-2-carboxamido)ethyl)-amino)-8-azabicyclo[3.2.1]octane-8-carboxylate]
- EC50: 2.1 µM
- Emax: 15%

SMILES: CCOC(=O)N1C2CCC1CC(NCCNC(=O)c1cccc(OC)c1)C2 (stereo not drawn) [Example 41, ethyl 3-((3-exo)-(2-(3-methoxybenzamido)ethyl)-amino)-8-azabicyclo[3.2.1]octane-8-carboxylate]
- Emax: 19%

SMILES: CCOC(=O)N1[C@@H]2CC[C@H]1C[C@H](NCCNC(=O)c1ccccc1Cl)C2 [Example 42]
- Emax: 25%
